Assay results published in patent US20250376445A1, “COMPOUNDS AND METHODS FOR YAP/TEAD MODULATION AND INDICATIONS THEREFOR” (OPNA BIO SA, priority 2023, published 2025).
Where two headings read alike, the source gives them in different places.

Test system: TEAD-dependent transcription
Assay: TEAD-dependent transcription cell-based reporter assay (MSTO-211H+12XGTIIC luciferase)
Parameters: species or system human
Conditions: MSTO-211H+12XGTIIC reporter cells, 24 hours compound incubation, luminescence normalized to viability, read-out: MSTO-211H GMean IC50 (uM) Cell Assay Reporter Cell Variant: TEAD
Description: The human mesothelioma cell line MSTO-211H was stably transfected with a pGL4.21 plasmid containing a synthetic promoter with 12 copies of the GTIIC TEAD response element that drives the expression of a luciferase reporter gene^1 using Lipofectamine transfection reagent (Thermo Fisher). Transfected cells were selected using puromycin and single cell clones expressing this construct (referred to as MSTO-211H+12XGTIIC) were generated by limiting dilution. MSTO-211H cells was characterized by genetic alterations in key components of the Hippo pathway^2, resulting in up-regulation of YAP/TEAD-mediated transcription. […] To evaluate TEAD inhibitors, the MSTO-211H+12XGTIIC cell line was seeded in a 96-well plate in 50 μL of culture media at 1×10^4 cells per well and incubated at 37° C. overnight. Serial dilutions of compounds (in total volume of 50 μL of culture media) were added to the cells and incubated at 37° C. for 24 hours. Each plate included cells treated with DMSO as high controls and cells treated with 20 μM of the reference compound K-975 (a known TEAD inhibitor)^3 as low controls. Cell viability was assayed by the addition of 25 μL of CellTiter-Fluor reagent (Promega) followed by a 30-minute incubation at 37° C. and quantification of the fluorescence signal (Ex400/Em505). Subsequently, luciferase expression was assayed by the addition of 25 μL of ONE-Glo reagent (Promega) followed by a 10-minute incubation at room temperature and quantification of the luminescence signal. The luminescence signal was normalized to the fluorescence signal to correct for any loss in cell viability over the 24-hour compound incubation period. The percentage of inhibition of normalized luminescence signal, indicative of compound-mediated inhibition of TEAD-dependent transcription, at individual compound concentrations relative to high and low controls was calculated. The data were analyzed by using nonlinear regression to generate IC50 values for individual compounds.

SMILES | IC50 (Homo sapiens) | IC50
O=C(CCS(=O)(=O)C(F)(F)F)N1CCc2c(Cc3ccc(C(F)(F)F)cc3)cccc2C1 [O-0001, 1-(5-(4-(trifluoromethyl)benzyl)-3,4-dihydroisoquinolin-2(1H)-yl)-3-((trifluoromethyl)sulfonyl)propan-1-one] | 0.001 to 10 µM | –
O=C(CCS(=O)(=O)C(F)(F)F)N1CCc2c(cccc2C(F)c2ccc(C(F)(F)F)cc2)C1 (stereo not shown) [O-0002, 1-(5-(fluoro(4-(trifluoromethyl)phenyl)methyl)-3,4-dihydroisoquinolin-2(1H)-yl)-3-((trifluoromethyl)sulfonyl)propan-1-one] | 0.001 to 10 µM | –
O=C(CCS(=O)(=O)C(F)(F)F)N1CCc2c(cccc2C(O)c2ccc(C(F)(F)F)cc2)C1 (stereo not shown) [O-0004, 1-(5-(hydroxy(4-(trifluoromethyl)phenyl)methyl)-3,4-dihydroisoquinolin-2(1H)-yl)-3-((trifluoromethyl)sulfonyl)propan-1-one] | 0.001 to 10 µM | –
O=C(c1ccc(C(F)(F)F)cc1)c1cccc2c1CCN(C(=O)CCS(=O)(=O)C(F)(F)F)C2 [O-0005, 1-(5-(4-(trifluoromethyl)benzoyl)-3,4-dihydroisoquinolin-2(1H)-yl)-3-((trifluoromethyl)sulfonyl)propan-1-one] | 0.001 to 10 µM | –
O=C(CCS(=O)(=O)C(F)(F)F)N1CCc2c(cccc2C(F)c2ccc(C(F)(F)F)nc2)C1 (stereo not shown) [O-0008, 1-(5-(fluoro(6-(trifluoromethyl)pyridin-3-yl)methyl)-3,4-dihydroisoquinolin-2(1H)-yl)-3-((trifluoromethyl)sulfonyl)propan-1-one] | 0.001 to 10 µM | –
O=C(CCS(=O)(=O)C(F)(F)F)N1CCc2c(cccc2C(F)(F)c2ccc(C(F)(F)F)nc2)C1 [O-0009, 1-(5-(difluoro(6-(trifluoromethyl)pyridin-3-yl)methyl)-3,4-dihydroisoquinolin-2(1H)-yl)-3-((trifluoromethyl)sulfonyl)propan-1-one] | 0.001 to 10 µM | –
CS(=O)(=O)c1nccc(C(=O)N2CCc3c(cccc3C(=O)c3ccc(C(F)(F)F)cc3)C2)n1 [O-0033, (2-(methylsulfonyl)pyrimidin-4-yl)(5-(4-(trifluoromethyl)benzoyl)-3,4-dihydroisoquinolin-2(1H)-yl)methanone] | 0.001 to 10 µM | –
O=C(c1ccc(C(F)(F)F)cc1)c1cccc2c1CCN(C(=O)c1c[nH]c(C(F)(F)F)n1)C2 [O-0037, (2-(trifluoromethyl)-1H-imidazol-4-yl)(5-(4-(trifluoromethyl)benzoyl)-3,4-dihydroisoquinolin-2(1H)-yl)methanone] | 0.001 to 10 µM | –
CS(=O)(=O)c1nc(C(=O)N2CCc3c(cccc3C(=O)c3ccc(C(F)(F)F)cc3)C2)c[nH]1 [O-0038, (2-(methylsulfonyl)-1H-imidazol-4-yl)(5-(4-(trifluoromethyl)benzoyl)-3,4-dihydroisoquinolin-2(1H)-yl)methanone] | 0.001 to 10 µM | –
O=C(c1ccc(C(F)(F)F)cc1)c1cccc2c1CCN(C(=O)c1cccc3[nH]c(C(F)(F)F)nc13)C2 [O-0046, (2-(trifluoromethyl)-1H-benzo[d]imidazol-4-yl)(5-(4-(trifluoromethyl)benzoyl)-3,4-dihydroisoquinolin-2(1H)-yl)methanone] | 0.001 to 10 µM | –
O=C(c1ccc(C(F)(F)F)cc1)c1cccc2c1CCN(C(=O)Cc1c[nH]cn1)C2 [O-0047, 2-(1H-imidazol-4-yl)-1-(5-(4-(trifluoromethyl)benzoyl)-3,4-dihydroisoquinolin-2(1H)-yl)ethan-1-one] | 0.001 to 10 µM | –
O=C(c1ccc(C(F)(F)F)cc1)c1cccc2c1CCN(C(=O)CCc1cnc[nH]1)C2 [O-0048, 3-(1H-imidazol-5-yl)-1-(5-(4-(trifluoromethyl)benzoyl)-3,4-dihydroisoquinolin-2(1H)-yl)propan-1-one] | 0.001 to 10 µM | –
CS(=O)(=O)c1nc(C(=O)N2CCc3c(cccc3C(F)c3ccc(C(F)(F)F)cc3)C2)c[nH]1 (stereo not shown) [O-0054, (5-(fluoro(4-(trifluoromethyl)phenyl)methyl)-3,4-dihydroisoquinolin-2(1H)-yl)(2-(methylsulfonyl)-1H-imidazol-4-yl)methanone] | 0.001 to 10 µM | –
O=C(c1c[nH]c(C(F)(F)F)n1)N1CCc2c(cccc2C(F)c2ccc(C(F)(F)F)cc2)C1 (stereo not shown) [O-0055, (5-(fluoro(4-(trifluoromethyl)phenyl)methyl)-3,4-dihydroisoquinolin-2(1H)-yl)(2-(trifluoromethyl)-1H-imidazol-4-yl)methanone] | 0.001 to 10 µM | –
O=C(Cc1cscn1)N1CCc2c(cccc2C(F)c2ccc(C(F)(F)F)cc2)C1 (stereo not shown) [O-0056, 1-(5-(fluoro(4-(trifluoromethyl)phenyl)methyl)-3,4-dihydroisoquinolin-2(1H)-yl)-2-(thiazol-4-yl)ethan-1-one] | 0.001 to 10 µM | –
CCOC(c1ccc(C(F)(F)F)cc1)c1cccc2c1CCN(C(=O)CCS(C)(=O)=O)C2 (stereo not shown) [O-0057, 1-(5-(ethoxy(4-(trifluoromethyl)phenyl)methyl)-3,4-dihydroisoquinolin-2(1H)-yl)-3-(methylsulfonyl)propan-1-one] | 0.001 to 10 µM | –
CS(=O)(=O)c1nccc(C(=O)N2CCc3ccc(C(=O)c4ccc(C(F)(F)F)cc4)cc3C2)n1 [O-0058, (2-(methylsulfonyl)pyrimidin-4-yl)(7-(4-(trifluoromethyl)benzoyl)-3,4-dihydroisoquinolin-2(1H)-yl)methanone] | 0.001 to 10 µM | –
O=C(CCc1cnc[nH]1)N1CCc2ccc(C(F)(F)c3ccc(C(F)(F)F)nc3)cc2C1 [O-0059, 1-(7-(difluoro(6-(trifluoromethyl)pyridin-3-yl)methyl)-3,4-dihydroisoquinolin-2(1H)-yl)-3-(1H-imidazol-5-yl)propan-1-one] | 0.001 to 10 µM | –
O=C(Cc1cnc[nH]1)N1CCc2ccc(C(F)(F)c3ccc(C(F)(F)F)nc3)cc2C1 [O-0060, 1-(7-(difluoro(6-(trifluoromethyl)pyridin-3-yl)methyl)-3,4-dihydroisoquinolin-2(1H)-yl)-2-(1H-imidazol-5-yl)ethan-1-one] | 0.001 to 10 µM | –
CS(=O)(=O)c1nc(C(=O)N2CCc3ccc(C(F)(F)c4ccc(C(F)(F)F)nc4)cc3C2)c[nH]1 [O-0061, (7-(difluoro(6-(trifluoromethyl)pyridin-3-yl)methyl)-3,4-dihydroisoquinolin-2(1H)-yl)(2-(methylsulfonyl)-1H-imidazol-4-yl)methanone] | 0.001 to 10 µM | –
O=C(CCS(=O)(=O)C(F)(F)F)N1CCc2ccc(C(F)(F)c3ccc(C(F)(F)F)nc3)cc2C1 [O-0062, 1-(7-(difluoro(6-(trifluoromethyl)pyridin-3-yl)methyl)-3,4-dihydroisoquinolin-2(1H)-yl)-3-((trifluoromethyl)sulfonyl)propan-1-one] | 0.001 to 10 µM | –
O=C(CCS(=O)(=O)C(F)(F)F)N1CCc2ccc(C(F)c3ccc(C(F)(F)F)nc3)cc2C1 (stereo not shown) [O-0063, 1-(7-(fluoro(6-(trifluoromethyl)pyridin-3-yl)methyl)-3,4-dihydroisoquinolin-2(1H)-yl)-3-((trifluoromethyl)sulfonyl)propan-1-one] | 0.001 to 10 µM | –
CS(=O)(=O)c1nc(C(=O)N2CCc3ccc(C(=O)c4ccc(C(F)(F)F)cc4)cc3C2)c[nH]1 [O-0064, (2-(methylsulfonyl)-1H-imidazol-4-yl)(7-(4-(trifluoromethyl)benzoyl)-3,4-dihydroisoquinolin-2(1H)-yl)methanone] | 0.001 to 10 µM | –
O=C(c1ccc(C(F)(F)F)cc1)c1ccc2c(c1)CN(C(=O)CCS(=O)(=O)C(F)(F)F)CC2 [O-0065, 1-(7-(4-(trifluoromethyl)benzoyl)-3,4-dihydroisoquinolin-2(1H)-yl)-3-((trifluoromethyl)sulfonyl)propan-1-one] | 0.001 to 10 µM | –
O=C(CCS(=O)(=O)C(F)(F)F)N1CCc2c(cccc2C(F)c2ccc(C(F)(F)F)nc2)C1 (stereo not shown) [O-0066, 1-(5-{fluoro[6-(trifluoromethyl)-3-pyridyl]methyl}-1,2,3,4-tetrahydro-2-isoquinolyl)-3-(trifluoromesyl)-1-propanone] | – | 0.001 to 10 µM
O=C(c1ccc(C(F)(F)F)cc1)c1cccc2c1CCN(C(=O)Cc1cocn1)C2 [O-0067, 2-(oxazol-4-yl)-1-(5-(4-(trifluoromethyl)benzoyl)-3,4-dihydroisoquinolin-2(1H)-yl)ethan-1-one] | 0.001 to 10 µM | –
O=C(Cc1c[nH]cn1)N1CCc2c(cccc2C(F)c2ccc(C(F)(F)F)cc2)C1 (stereo not shown) [O-0068, 1-(5-(fluoro(4-(trifluoromethyl)phenyl)methyl)-3,4-dihydroisoquinolin-2(1H)-yl)-2-(1H-imidazol-4-yl)ethan-1-one] | 0.001 to 10 µM | –
Nc1nc2ccc(C(=O)N3CCc4c(cccc4C(=O)c4ccc(C(F)(F)F)cc4)C3)cc2[nH]1 [O-0069, (2-amino-1H-benzo[d]imidazol-6-yl)(5-(4-(trifluoromethyl)benzoyl)-3,4-dihydroisoquinolin-2(1H)-yl)methanone] | 0.001 to 10 µM | –
